Laboratory results: article PMC8619046, “ABCB1 and ABCG2 Control Brain Accumulation and Intestinal Disposition of the Novel ROS1/TRK/ALK Inhibitor Repotrectinib, While OATP1A/1B, ABCG2, and CYP3A Limit Its Oral Availability” (Pharmaceutics, 2021)
Read-outs that look alike come from different tables or passages of the source.

What was measured:
[1] = tested on: ROS1-positive advanced NSCLC; details: cited from earlier work; for confirmed objective response rate (ORR): preliminary TRIDENT-1 data
[2] = Toxicity signs observed in mice after oral repotrectinib; type: in vivo; details: 10 mg/kg oral
Excerpt: Mice with similar average ages (and body weights) were randomly allocated in experimental groups as far as possible. Mice were maintained in a temperature-controlled and specific pathogen-free environment with a 12-h light and 12-h dark cycle and they received a standard diet (Transbreed, SDS Diets, Technilab-BMI, Someren, The Netherlands) and acidified water ad libitum. […] Given the objective main readout (repotrectinib plasma and tissue concentrations as measured by LC-MS/MS), no blinding method was applied.
To minimize variation in absorption upon oral administration, mice were fasted for 2–3 h before repotrectinib (10 mg/kg body weight) was administered by gavage into the stomach at 10 µL/g body weight, with a blunt-ended needle. Tail vein serial blood samples were collected at 0.125, 0.25, 0.5, 1, 2 and 4 h using heparinized capillary tubes (Sarstedt, Nümbrecht, Germany) for the 8-h experiments. For the 4- and 2-h experiments, blood samplings were performed from the tail vein with the same schedule, but terminated at 2 and 1 h, respectively. Eight, four, or two hours after oral administration, mice were deeply anesthetized with 2–3% isoflurane, followed by cardiac puncture to collect blood in Eppendorf tubes containing heparin as an anticoagulant. Brain, liver, spleen, kidney, lung, small intestine, and testis were rapidly collected after sacrificing the mice by cervical dislocation. The small intestinal contents (SIC) were separated from small intestinal tissue (SI), which was flushed and rinsed with cold saline to remove any residual feces. Brain, liver, spleen, kidney, lung, SI, SIC, and testis were homogenized with 1, 3, 1, 2, 1, 3, 2, and 1 mL of 2% BSA (w/v), respectively. Plasma fraction was isolated from blood by centrifugation at 9000× g for 6 min at 4 °C. All samples were stored at −30 °C until analysis.

human ABCG2 = tested on: T1, human ABCG2; assay: Transepithelial transport, MDCK-II cells transduced with hABCG2; type: in vitro ADME; details: MDCK-II hABCG2, 5 µM, read-out: efflux transport ratio r
T1 construct: expressed in transfected cells; host or cells: MDCK-II cells stably transduced with hABCG2 cDNA (made in the authors' institute)
Excerpt: Polarized Madin-Darby Canine Kidney (MDCK-II) cells (ECACC 00062107) stably transduced with either human (h) ABCB1, hABCG2 or mouse (m) Abcg2 cDNA were generated in our institute between 1995–2005. The proper identity and functionality, such as highly characteristic growth and drug transporter properties, including inhibitor sensitivity, were regularly checked in these epithelial cells. Mycoplasma routinely tested negative in these cells. The passage number was 10–15 when used in the transport experiments.
Transepithelial transport experiments were performed as previously described with 12-well plates (Transwell 3414, Corning Inc., Kennebunk, ME, USA) containing microporous polycarbonate membrane filters (3.0 µm pore size, 12 mm diameter). […]
After pre-incubation with 5 µM zosuquidar (ABCB1 inhibitor) and/or 5 µM Ko143 (ABCG2/Abcg2 inhibitor) in both compartments (when appropriate) for 1 h, the transport phase was initiated (t = 0) by replacing the medium in apical and basolateral compartments with fresh DMEM with 10% FBS and the appropriate inhibitor(s), and repotrectinib at 5 µM in the donor compartment. […] The active transport ratio r, calculated by dividing the amount of apically directed drug transport by basolaterally directed drug translocation after 8 h, was used to assess active transport of repotrectinib.

## C[C@H]1CNC(=O)c2cnn3ccc(nc23)N[C@H](C)c2cc(F)ccc2O1 [repotrectinib]
[1]; TKI-naïve ROS1 + NSCLC patients
  confirmed objective response rate (ORR): 86%
[1]; TKI-pretreated patients
  confirmed objective response rate (ORR): 50%
[1]; majority of events, manageable
  treatment-related adverse events, severity: grade 1 or grade 2
[1]; on-going phase I clinical trial (NCT03063116)
  most common adverse effect: dizziness
[1]; patients who had disease progression on prior TRK inhibitors
  patients with prominent clinical activity: 50%
[2]; Cyp3a−/− and Oatp1a/1b−/− mice
  toxicity signs: no noticeable signs of toxicity
[2]; female Abcb1a/1b;Abcg2−/− mice
  time at which signs of toxicity disappeared: around 4 h
  time of toxicity signs after oral administration: 1 to 2 h
[2]; female Abcb1a/1b;Abcg2−/− mice, hypoactivity and continuously closed eyes
  toxicity signs: mild toxicity signs
[2]; female wild-type mice
  toxicity signs: no noticeable toxicity symptoms
Human ABCG2; pH 7.4, with zosuquidar 5 µM + Ko143 5 µM, + zosuquidar 5 µM + Ko143 5 µM
  efflux ratio at 8 h, 5 µM: 0.95
Human ABCG2; pH 7.4, with zosuquidar 5 µM, + zosuquidar 5 µM
  efflux ratio at 8 h, 5 µM: 5.6
